What follows are molecules tested against T1, C-C chemokine receptor type 6 (Homo sapiens, UniProt P51684) (assay: CCR6 receptor antagonists, dose response, cell-based, luminescent beta-arrestin readout (AID 504728)).
T1 sequence (P51684 whole entry): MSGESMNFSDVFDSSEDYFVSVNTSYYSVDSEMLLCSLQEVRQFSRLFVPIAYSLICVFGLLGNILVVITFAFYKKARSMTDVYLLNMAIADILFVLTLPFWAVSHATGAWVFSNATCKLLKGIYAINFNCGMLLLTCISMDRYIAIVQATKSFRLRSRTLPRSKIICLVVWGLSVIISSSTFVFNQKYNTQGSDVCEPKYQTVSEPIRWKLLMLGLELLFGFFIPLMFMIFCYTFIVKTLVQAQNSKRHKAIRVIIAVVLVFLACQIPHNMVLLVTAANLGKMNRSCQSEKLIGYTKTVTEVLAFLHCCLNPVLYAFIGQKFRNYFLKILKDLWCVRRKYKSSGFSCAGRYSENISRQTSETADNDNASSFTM

SMILES | IC50 [µM]
CC(NO)C(=O)C(=CN1CCCCC1)CN1CCCCC1 (centres undefined) | > 66.6
Cc1cc(C)nc(NNC=C2C(=O)CC(c3ccc(F)cc3)CC2=O)n1 (centres undefined) | > 66.6
O=C1Nc2ccc([N+](=O)[O-])cc2/C1=N/NC(=O)c1cc(-c2ccccc2Cl)nc2ccccc12 [2-(2-chlorophenyl)-N'-(2-keto-5-nitro-indol-3-yl)cinchoninohydrazide] | > 66.6
COC1=CC=CC(CN=Nc2nc(Nc3ccc([N+](=O)[O-])cc3)nc(N3CCCC3)n2)C1=O (centres undefined) [2-hydroxy-3-methoxybenzaldehyde {4-[(4-nitrophenyl)amino]-6-pyrrolidin-1-yl-1,3,5-triazin-2-yl}hydrazone] | 1.64
O=Nc1c(C2C(=O)Nc3cc(Br)ccc32)[nH]c2ccccc12 (centres undefined) [6-bromoindirubin-3-oxime] | > 66.6
O=C1C([N+](=O)[O-])=CC=CC1CN=Nc1ccc2ccccc2n1 (centres undefined) [(6E)-2-nitro-6-[(2-quinolin-2-ylhydrazinyl)methylidene]cyclohexa-2,4-dien-1-one] | > 66.6
COc1cccc(CN=Nc2nc(Nc3ccccc3)nc(-n3nc(C)cc3C)n2)c1O [(6E)-6-[[2-[4-(3,5-dimethylpyrazol-1-yl)-6-phenylazanyl-1,3,5-triazin-2-yl]hydrazinyl]methylidene]-2-methoxy-cyclohexa-2,4-dien-1-one] | > 66.6
CN(C)c1nc(N=NCc2ccccc2O)nc(Nc2ccc(F)cc2)n1 [(6E)-6-[[2-[4-(dimethylamino)-6-(4-fluoroanilino)-1,3,5-triazin-2-yl]hydrazinyl]methylidene]cyclohexa-2,4-dien-1-one] | > 66.6
O=C1C([N+](=O)[O-])=CC(Cl)=CC1CN=Nc1ccccn1 (centres undefined) [MLS000539830] | > 66.6
O=C1C=CC([N+](=O)[O-])=CC1CN=Nc1ccccn1 (centres undefined) [MLS000585015] | > 66.6
C/C=C(\C)C(=O)OC1[C@H](OC(C)=O)C2(CO)C(CC1(C)C)C1=CCC3C4(C)CCC(O[C@@H]5O[C@H](C(=O)O)[C@@H](O[C@@H]6O[C@H](CO)[C@@H](O)[C@H](O)[C@H]6O)[C@H](O)[C@H]5O[C@H]5O[C@H](CO)[C@@H](O)[C@H](O)[C@H]5O)[C@](C)(CO)C4CCC3(C)[C@]1(C)C[C@H]2O (some centres undefined) [MLS002695979] | 16.4
C=CCSC(N)=NN=CC1C=C(Br)C=C([N+](=O)[O-])C1=O (centres undefined) [N''-[[(E)-(3-bromo-5-nitro-6-oxo-1-cyclohexa-2,4-dienylidene)methyl]amino]carbamimidothioic acid prop-2-enyl ester] | > 66.6
O=C1C(/C=N/c2ccc(N3CCOCC3)cc2)=CC(Cc2ccccc2)C=C1[N+](=O)[O-] (centres undefined) [SMR000231104] | > 66.6
CCCC1CCC(=NNC(=S)NCCc2ccccc2)CC1 (centres undefined) [SMR000347544] | > 66.6
CC(C)(C)C1CCC(=NNC(=S)NCc2ccccc2)CC1 (centres undefined) [SMR000377499] | > 66.6
COc1ccc(-n2c(O)c(CN=Nc3nc(C)cc(C)n3)c3ccccc3c2=O)cc1OC [SMR000385482] | 0.594
Cc1cc(N=NCc2ccc(F)cc2)nc(-n2nc(C)cc2C)n1 [SMR000426945] | > 66.6
CN1C(=O)C(C2CC(c3ccc(Cl)cc3)N=N2)C(=O)N(C)C1=O (centres undefined) [SMR000439471] | 14.9
N#CC(=C1C=CC(N=O)C(Cl)=C1)c1ccc(Cl)cc1 (centres undefined) [SMR001570423] | > 66.6
